System: splice junctions in human transcripts, PNN 1-46 cells
Test: RNA sequencing, splice-site (splice junction) analysis, Compound vs DMSO control
Type: cell-based
Protocol: PNN 1-46 cells derived from a Type I SMA patient were treated with Compound 702 at 500 nM for 24 hours. RNA was purified with the RNeasy Mini Kit (Qiagen) for mRNA sequencing on HiSeq 2500 (Illumina Inc., San Diego, Calif.). The quality of the total RNA was assessed using UV spectrophotometry and agarose gel electrophoresis. Template DNA molecules suitable for cluster generation were prepared from 1 ug of total RNA samples using the TruSeq RNA Sample Preparation Kit v2 (Illumina Inc., San Diego, Calif.) according to the manufacturer's instructions. The size distribution of the libraries was estimated by electrophoresis on Agilent High Sensitivity Bioanalyzer microfluidic chips. The minimum and average sizes of the amplified libraries were determined to be >200 nucleotides and 300-340 nucleotides, respectively. Libraries were quantified using the KAPA Library Quantification Kit (KK4824, Kapa Biosystems, Boston, Mass.). The libraries were pooled at equimolar concentrations and diluted prior to loading onto the flow cell of the HiSeq 2500 (Illumina Inc., San Diego, Calif.) for both clustering and sequencing. The libraries were extended and bridge-amplified to create single sequence clusters using the TruSeq Rapid PE Cluster Kit—HS (Illumina Inc., San Diego, Calif.). Amplified clusters in the flow cell were then sequenced with 50-bp paired-end reads using the TruSeq Rapid SBS Kit—HS (Illumina Inc., San Diego, Calif.) in rapid run mode. Real time image analysis and base calling were performed on the HiSeq 2500 instrument using the HiSeq Sequencing Control Software (HCS). CASAVA software version 1.8 was used for de-multiplexing and production of FASTQ sequence files.
In order to estimate gene expression levels, paired-end RNAseq reads were subsequently mapped to RefSeq human transcripts (release 60) and the human genome (hg19) by using the short read aligner Bowtie2 (Langmead et al., 2012. Nature methods 9:357). The number of mapped reads for all transcript variants of a gene (counts) were combined into a single value and normalized denoted as rpkms (number of mapped reads per kilobase transcript per million sequenced reads, (Mortazavi et al., 2008. Nature methods 5:621)). The splice-site analysis was performed by mapping the paired-end RNASeq reads to RefSeq human transcripts using the alignment software GSNAP with default parameters and the option ‘sam-multiple-primaries’ in order to account for reads that were mapped multiple times to different splice variants. The number of reads spanning splice-sites was determined by applying the samtools mpileup software with default parameters for each transcript. Reads having an alignment start or end exactly on the splice-site were excluded from the analysis (Wu et al., 2005, Bioinformatics 21:1859; Wu et al., 2010, Bioinformatics 26:873; Li et al., 2009, Bioinformatics 25:2078). […]

[1] = 500 nM vs DMSO control, FIG. 2C

Compound: CCN1CCC(c2cc(C)c3nc(-c4cc5c(C)nc(C)cn5n4)cc(=O)n3c2)CC1 [Compound 702]
- effect on STRN3 transcript variants [1]: a switch between variants NM_014574 and NM_001083893
- genes to which the splice junctions with p>300 belong [1]: SMN2, PDXDC1, STRN3, and pseudogene PDXDC2P
- splice junctions with p>300 (p=Δ×Log2 FC) [1]: 20 splice junctions
- splice junctions with p>300 that belong to PDXDC1, all similarly affected [1]: 15 splice junctions
- splice junctions with p>100 (p=Δ×Log2 FC) (500 nM vs DMSO control, out of about 300,000 splice junctions analyzed, FIG. 2C): 114 splice junctions
- up spl j gene (gene with upregulated splice junctions) (PNN 1-46, 500 nM, 24 hours, splice junctions with p>100, * = pseudogene): STRN3 and APLP2 and TEX21P* and RCC1 and FOXM1 and VPS29
